What was measured:
[1] = target: Receptor tyrosine-protein kinase erbB-4 (Homo sapiens, UniProt Q15303); conditions: at 10 µM
[2] = target: Ephrin type-A receptor 7 (Homo sapiens) (UniProt Q15375); assay: Selectivity interaction (KinomeScan (DiscoverX)) EUB0000229b EPHA7; conditions: at 10 µM
[3] = target: T1, Serine/threonine-protein kinase Nek5 (Homo sapiens) (UniProt Q6P3R8); assay: Selectivity interaction (KinomeScan (DiscoverX)) EUB0001079a NEK5; conditions: at 1 µM
T1 sequence (whole entry): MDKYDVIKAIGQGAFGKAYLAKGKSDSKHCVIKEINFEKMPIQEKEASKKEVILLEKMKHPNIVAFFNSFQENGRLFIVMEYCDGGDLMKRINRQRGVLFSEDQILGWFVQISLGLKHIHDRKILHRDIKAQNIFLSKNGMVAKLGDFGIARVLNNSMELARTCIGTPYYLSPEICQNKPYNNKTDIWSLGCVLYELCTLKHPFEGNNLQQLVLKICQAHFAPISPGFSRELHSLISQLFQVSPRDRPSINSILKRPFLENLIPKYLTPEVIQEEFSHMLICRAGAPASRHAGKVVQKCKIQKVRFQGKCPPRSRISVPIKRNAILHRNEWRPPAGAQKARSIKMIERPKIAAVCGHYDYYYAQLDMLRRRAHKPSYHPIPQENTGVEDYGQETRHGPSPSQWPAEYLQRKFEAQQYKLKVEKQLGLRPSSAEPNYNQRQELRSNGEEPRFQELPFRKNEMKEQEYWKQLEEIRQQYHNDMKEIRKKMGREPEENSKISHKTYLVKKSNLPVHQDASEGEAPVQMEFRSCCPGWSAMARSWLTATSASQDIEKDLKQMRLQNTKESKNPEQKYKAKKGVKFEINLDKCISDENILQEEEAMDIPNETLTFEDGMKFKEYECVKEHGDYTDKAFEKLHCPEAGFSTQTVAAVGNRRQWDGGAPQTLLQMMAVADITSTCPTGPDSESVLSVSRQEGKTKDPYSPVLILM

[4] = target: T2, Serine/threonine-protein kinase DCLK2 (Homo sapiens) (UniProt Q8N568); assay: Selectivity interaction (KinomeScan (DiscoverX)) EUB0000045b DCLK2
T2 sequence (whole entry): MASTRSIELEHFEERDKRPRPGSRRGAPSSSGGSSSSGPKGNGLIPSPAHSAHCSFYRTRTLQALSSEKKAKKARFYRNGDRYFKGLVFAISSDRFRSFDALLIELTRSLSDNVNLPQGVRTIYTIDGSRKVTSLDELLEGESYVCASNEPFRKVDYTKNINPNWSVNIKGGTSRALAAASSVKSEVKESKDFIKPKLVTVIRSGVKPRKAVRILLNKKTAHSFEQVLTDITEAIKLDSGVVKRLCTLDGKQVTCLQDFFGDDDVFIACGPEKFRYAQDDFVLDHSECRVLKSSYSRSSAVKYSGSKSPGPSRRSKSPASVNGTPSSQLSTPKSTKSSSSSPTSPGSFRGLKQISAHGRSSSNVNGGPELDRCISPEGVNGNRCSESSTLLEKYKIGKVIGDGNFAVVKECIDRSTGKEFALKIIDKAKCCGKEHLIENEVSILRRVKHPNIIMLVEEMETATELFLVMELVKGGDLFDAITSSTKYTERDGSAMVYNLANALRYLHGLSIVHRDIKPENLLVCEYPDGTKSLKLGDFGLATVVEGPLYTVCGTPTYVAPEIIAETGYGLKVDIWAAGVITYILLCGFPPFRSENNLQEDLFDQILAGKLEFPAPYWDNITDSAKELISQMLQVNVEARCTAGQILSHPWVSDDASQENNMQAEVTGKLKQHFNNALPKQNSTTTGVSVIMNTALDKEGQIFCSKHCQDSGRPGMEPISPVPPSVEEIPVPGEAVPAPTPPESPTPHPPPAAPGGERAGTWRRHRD

[5] = target: Serine/threonine-protein kinase PAK 6 (Homo sapiens) (UniProt Q9NQU5); assay: Selectivity interaction (SelectScreen profiling (Invitrogen)) EUB0000607a PAK6; conditions: at 2 µM
Serine/threonine-protein kinase PAK 6 (Homo sapiens), sequence (Q9NQU5 whole entry, looked up): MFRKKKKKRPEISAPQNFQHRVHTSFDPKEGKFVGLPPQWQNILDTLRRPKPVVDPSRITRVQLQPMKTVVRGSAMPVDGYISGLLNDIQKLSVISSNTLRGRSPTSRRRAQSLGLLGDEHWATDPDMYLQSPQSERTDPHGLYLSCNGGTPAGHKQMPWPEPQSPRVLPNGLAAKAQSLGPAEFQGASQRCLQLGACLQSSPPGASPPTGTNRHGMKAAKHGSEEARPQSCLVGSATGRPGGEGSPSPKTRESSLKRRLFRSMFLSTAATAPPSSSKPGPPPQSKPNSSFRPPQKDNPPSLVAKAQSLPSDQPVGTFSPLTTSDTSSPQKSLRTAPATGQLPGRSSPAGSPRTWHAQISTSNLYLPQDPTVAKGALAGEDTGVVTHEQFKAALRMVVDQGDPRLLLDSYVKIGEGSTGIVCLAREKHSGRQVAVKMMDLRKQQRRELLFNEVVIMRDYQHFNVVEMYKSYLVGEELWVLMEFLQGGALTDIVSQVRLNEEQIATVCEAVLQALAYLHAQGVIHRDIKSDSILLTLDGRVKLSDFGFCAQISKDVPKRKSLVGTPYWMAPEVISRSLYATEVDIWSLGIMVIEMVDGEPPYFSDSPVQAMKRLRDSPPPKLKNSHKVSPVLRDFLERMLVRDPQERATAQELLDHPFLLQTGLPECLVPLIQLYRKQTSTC

[6] = system: Tyrosine-protein kinase ABL1 (Homo sapiens), P00519 [Q252H]; assay: Selectivity interaction (KinomeScan (DiscoverX)) EUB0000607a ABL1; conditions: at 10 µM
[7] = system: T3, Receptor-type tyrosine-protein kinase FLT3 (Homo sapiens), P36888 [D835H]; assay: Selectivity interaction (KinomeScan (DiscoverX)) EUB0000666a FLT3; conditions: at 10 µM
T3 sequence (whole entry): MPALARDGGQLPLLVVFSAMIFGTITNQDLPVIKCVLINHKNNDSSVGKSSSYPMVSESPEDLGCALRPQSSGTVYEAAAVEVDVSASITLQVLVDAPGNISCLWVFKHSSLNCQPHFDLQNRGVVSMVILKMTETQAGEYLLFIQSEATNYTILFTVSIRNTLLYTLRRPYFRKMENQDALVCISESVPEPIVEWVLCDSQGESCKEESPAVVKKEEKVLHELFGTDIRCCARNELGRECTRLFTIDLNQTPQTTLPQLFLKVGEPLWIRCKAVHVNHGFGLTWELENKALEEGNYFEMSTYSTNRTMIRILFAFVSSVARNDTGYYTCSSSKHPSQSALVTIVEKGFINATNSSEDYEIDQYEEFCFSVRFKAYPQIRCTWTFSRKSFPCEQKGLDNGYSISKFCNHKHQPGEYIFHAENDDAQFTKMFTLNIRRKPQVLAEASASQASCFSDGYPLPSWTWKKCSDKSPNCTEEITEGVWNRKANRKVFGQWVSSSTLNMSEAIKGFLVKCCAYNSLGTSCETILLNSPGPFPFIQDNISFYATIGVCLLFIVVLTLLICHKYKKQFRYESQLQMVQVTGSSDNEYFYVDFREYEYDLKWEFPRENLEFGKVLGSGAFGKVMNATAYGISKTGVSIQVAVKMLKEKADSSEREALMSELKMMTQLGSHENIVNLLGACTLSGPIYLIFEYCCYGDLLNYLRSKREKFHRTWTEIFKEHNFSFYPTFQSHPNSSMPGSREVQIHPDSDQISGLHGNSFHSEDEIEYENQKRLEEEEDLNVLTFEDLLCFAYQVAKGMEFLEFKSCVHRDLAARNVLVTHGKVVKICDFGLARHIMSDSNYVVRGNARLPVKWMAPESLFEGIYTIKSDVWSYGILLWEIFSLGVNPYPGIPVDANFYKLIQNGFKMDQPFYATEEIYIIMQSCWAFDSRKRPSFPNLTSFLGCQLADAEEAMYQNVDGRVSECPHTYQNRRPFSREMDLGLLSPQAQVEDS

Receptor tyrosine-protein kinase erbB-4, sequence (Q15303 whole entry): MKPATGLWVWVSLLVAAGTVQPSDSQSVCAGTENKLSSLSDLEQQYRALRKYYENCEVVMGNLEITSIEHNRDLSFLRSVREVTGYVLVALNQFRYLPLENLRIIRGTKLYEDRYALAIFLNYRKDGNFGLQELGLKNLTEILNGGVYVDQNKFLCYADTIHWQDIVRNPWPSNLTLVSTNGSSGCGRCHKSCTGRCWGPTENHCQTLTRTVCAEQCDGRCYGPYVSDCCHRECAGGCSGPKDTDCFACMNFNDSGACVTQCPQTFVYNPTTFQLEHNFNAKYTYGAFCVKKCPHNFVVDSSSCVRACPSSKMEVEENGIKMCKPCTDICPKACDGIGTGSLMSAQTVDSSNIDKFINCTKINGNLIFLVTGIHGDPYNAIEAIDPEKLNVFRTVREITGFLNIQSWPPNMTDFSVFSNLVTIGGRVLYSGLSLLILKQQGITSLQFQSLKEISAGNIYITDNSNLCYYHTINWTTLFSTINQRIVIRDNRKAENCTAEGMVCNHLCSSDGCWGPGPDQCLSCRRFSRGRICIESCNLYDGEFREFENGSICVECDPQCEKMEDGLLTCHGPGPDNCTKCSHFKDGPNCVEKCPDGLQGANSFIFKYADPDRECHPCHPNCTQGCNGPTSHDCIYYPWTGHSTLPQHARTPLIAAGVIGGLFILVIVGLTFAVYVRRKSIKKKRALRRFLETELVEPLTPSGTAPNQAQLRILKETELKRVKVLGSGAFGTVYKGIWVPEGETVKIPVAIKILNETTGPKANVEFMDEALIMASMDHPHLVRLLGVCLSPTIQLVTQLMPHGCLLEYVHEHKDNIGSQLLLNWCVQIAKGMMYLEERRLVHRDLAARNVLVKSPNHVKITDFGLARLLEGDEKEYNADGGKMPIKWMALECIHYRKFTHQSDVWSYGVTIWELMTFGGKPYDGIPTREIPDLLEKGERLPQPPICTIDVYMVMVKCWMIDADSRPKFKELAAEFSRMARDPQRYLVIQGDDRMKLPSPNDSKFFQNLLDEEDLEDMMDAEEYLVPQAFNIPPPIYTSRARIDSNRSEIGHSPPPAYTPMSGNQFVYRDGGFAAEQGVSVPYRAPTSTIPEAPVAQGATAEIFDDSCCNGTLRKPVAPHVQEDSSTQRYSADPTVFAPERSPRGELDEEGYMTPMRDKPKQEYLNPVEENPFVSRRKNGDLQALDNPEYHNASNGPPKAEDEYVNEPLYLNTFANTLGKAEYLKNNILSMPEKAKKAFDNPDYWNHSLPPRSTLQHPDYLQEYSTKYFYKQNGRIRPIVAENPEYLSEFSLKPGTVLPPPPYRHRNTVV
Ephrin type-A receptor 7 (Homo sapiens), sequence (Q15375 28-998 limits assumed): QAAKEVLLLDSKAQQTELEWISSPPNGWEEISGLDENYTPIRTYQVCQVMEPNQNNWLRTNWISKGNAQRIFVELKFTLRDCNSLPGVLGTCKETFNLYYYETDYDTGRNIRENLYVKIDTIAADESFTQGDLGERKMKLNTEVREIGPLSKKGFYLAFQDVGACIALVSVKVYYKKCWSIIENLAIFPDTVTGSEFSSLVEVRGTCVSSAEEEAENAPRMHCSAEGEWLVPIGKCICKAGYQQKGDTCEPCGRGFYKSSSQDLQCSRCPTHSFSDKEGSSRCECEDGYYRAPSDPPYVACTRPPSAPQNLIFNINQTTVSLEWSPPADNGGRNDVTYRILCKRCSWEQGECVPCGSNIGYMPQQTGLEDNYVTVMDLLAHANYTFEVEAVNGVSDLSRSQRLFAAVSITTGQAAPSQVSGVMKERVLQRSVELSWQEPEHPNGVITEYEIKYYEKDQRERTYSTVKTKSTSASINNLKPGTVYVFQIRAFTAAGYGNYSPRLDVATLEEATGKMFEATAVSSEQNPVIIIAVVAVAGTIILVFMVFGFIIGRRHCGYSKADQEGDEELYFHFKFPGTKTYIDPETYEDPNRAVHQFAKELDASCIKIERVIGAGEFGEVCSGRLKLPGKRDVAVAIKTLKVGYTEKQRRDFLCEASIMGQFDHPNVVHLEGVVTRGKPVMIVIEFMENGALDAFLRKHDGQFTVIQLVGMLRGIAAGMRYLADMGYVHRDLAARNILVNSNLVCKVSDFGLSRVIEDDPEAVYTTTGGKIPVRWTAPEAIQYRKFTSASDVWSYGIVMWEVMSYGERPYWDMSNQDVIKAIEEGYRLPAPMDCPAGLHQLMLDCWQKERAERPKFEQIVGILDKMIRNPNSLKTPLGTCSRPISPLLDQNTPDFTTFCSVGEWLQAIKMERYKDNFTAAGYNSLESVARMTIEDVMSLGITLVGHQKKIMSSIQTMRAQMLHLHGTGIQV

Q: `CCN(CC)CCCCNc1ncc2cc(-c3cc(OC)cc(OC)c3)c(NC(=O)NC(C)(C)C)nc2n1` was tested. Which % of control [1] did it give?
A: 100%

Q: `COc1cc(N(C)c2ccnc3ccc(C(F)(F)F)cc23)cc(OC)c1OC` was tested. Which % binding [2] did it give?
A: 99%

Q: For `Nc1cnc(N2CCc3cc(S(=O)(=O)Nc4c(F)cc(Cl)cc4F)cc(N4CCCC4=O)c32)nc1` [TP-020n], which % of control [3] is on record?
A: 100%

Q: For `C=CC(=O)Nc1cc(-n2c(=O)ccc3cnc4ccc(-c5ccc(NS(C)(=O)=O)cc5)cc4c32)ccc1C`, which % of control ([4]; at 1 µM) is on record?
A: 100%

Q: And the % of control ([4]; at 10 µM)?
A: 100%

Q: Which results are given for `CNC(=O)Nc1ccc(-c2nc(N3CC4CCC(C3)O4)c3cnn(C4CCC5(CC4)OCCO5)c3n2)cc1`?
A: % of inhibition [5]: 11%; % of control [6]: 100%

Q: How did the % of control [7] turn out when `O=C(NOC[C@H](O)CO)c1ccc(F)c(F)c1Nc1ccc(I)cc1F` was run?
A: 87%
